Assay results from BindingDB's records for doi:10.1007/s10822-022-00478-x (Roche Innovation Center Basel, F. Hoffmann-La Roche Ltd., 2022).
pIC50: −log10 of the molar value.

target: cAMP and cAMP-inhibited cGMP 3',5'-cyclic phosphodiesterase 10A (Homo sapiens, UniProt Q9Y233); test: PDE10A assay
Method in brief: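 Scintillation proximity readout of [3H]cGMP hydrolysis (50 nM final substrate, 15 min) by 2 ng/well human PDE10A after 15 min compound preincubation at RT, pH 7.5 with MgCl2. Four-parameter logistic fit gave IC50, reported as pIC50.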

Q: Cc1nc2cc(Cl)ccc2nc1OCc1nc(-c2ccccc2)cn1C [Roche-Dataset for PDE10A, Compound 587] was tested. Which pIC50 did it give?
A: Its pIC50 is 8.39.

Q: O=C(Nc1cc(-c2ccccn2)nn1CCN1CCOCC1)c1nc(C2CC2)ccc1Nc1cncnc1 [US8470820, 16] was tested. Which pIC50 did it give?
A: Its pIC50 is 8.82.

Q: Cn1ncc(C(=O)O)c1C(=O)Nc1ccn2nc(-c3cccnc3F)nc2c1 [Roche-Dataset for PDE10A, Compound 458] was tested. Which pIC50 did it give?
A: The pIC50 was 7.18.

Q: With CC(C)NC(=O)c1nc(C2CC2)cnc1OCc1nc(-c2ccccc2)cn1C [Roche-Dataset for PDE10A, Compound 252] as the compound, how does the pIC50 read?
A: Its pIC50 is 5.97.

Q: With COCCn1ncc(NC(=O)c2nc(C3CC3)ccc2Nc2cncnc2)c1C(=O)N(C)C [Roche-Dataset for PDE10A, Compound 944] as the compound, how does the pIC50 read?
A: Its pIC50 is 7.89.

Q: How did the pIC50 turn out when O=C(Nc1ccn(C2CCCC2)n1)c1nc(C2CC2)ccc1Nc1cncnc1 [Roche-Dataset for PDE10A, Compound 580] was run?
A: Its pIC50 is 8.25.

Q: With Cn1nc(-c2cccc(Cl)n2)cc1NC(=O)c1nc(C2CC2)ccc1Nc1cncnc1 [US8470820, 41] as the compound, how does the pIC50 read?
A: The pIC50 was 8.56.

Q: With O=C(NC1CCCCCC1)c1nc(C2CC2)cnc1Nc1cncnc1 [Roche-Dataset for PDE10A, Compound 1154] as the compound, how does the pIC50 read?
A: Its pIC50 is 5.98.

Q: How did the pIC50 turn out when Cn1nc(-c2ccccn2)cc1NC(=O)c1nc(C2CC2)ccc1Nc1cncnc1 [US8470820, 8] was run?
A: Its pIC50 is 8.49.

Q: With CN(c1cncnc1)c1ccc(C2CC2)nc1C(=O)Nc1cc(-c2ccccn2)nn1C [Roche-Dataset for PDE10A, Compound 360] as the compound, how does the pIC50 read?
A: Its pIC50 is 5.25.

Q: O=C(NCc1ncco1)c1nc(C2CC2)cnc1Nc1cncnc1 [Roche-Dataset for PDE10A, Compound 1086] was tested. Which pIC50 did it give?
A: Its pIC50 is 5.99.

Q: How did the pIC50 turn out when CCn1nc(NC(=O)c2c(C(=O)N3CCC3)cnn2C)cc1C1CC1 [Roche-Dataset for PDE10A, Compound 1135] was run?
A: Its pIC50 is 5.21.

Q: With CNC(=O)c1cccc(NC(=O)c2nc(C3CC3)cnc2Nc2cncnc2)n1 [Roche-Dataset for PDE10A, Compound 1026] as the compound, how does the pIC50 read?
A: The pIC50 was 6.77.

Q: With Cc1ccc(Nc2cncc(O)n2)c(C(=O)Nc2ccn(C)n2)n1 [Roche-Dataset for PDE10A, Compound 940] as the compound, how does the pIC50 read?
A: Its pIC50 is 5.09.

Q: With COC1CN(C(=O)c2cnn(C)c2C(=O)Nc2ccn3nc(-c4ccccc4)nc3c2)C1 [Roche-Dataset for PDE10A, Compound 139] as the compound, how does the pIC50 read?
A: Its pIC50 is 7.60.

Q: COCc1cc(C(=O)Nc2ccn3nc(-c4ccccc4)nc3c2)n(C)n1 [Roche-Dataset for PDE10A, Compound 390] was tested. Which pIC50 did it give?
A: Its pIC50 is 7.06.

Q: With CNC(=O)c1cc2[nH]c(-c3ccccc3)nc2cc1NC(=O)c1c(C(=O)N2CCC2)cnn1C [Roche-Dataset for PDE10A, Compound 439] as the compound, how does the pIC50 read?
A: Its pIC50 is 7.16.

Q: O=C1CCc2c(NC(=O)c3nc(C4CC4)cnc3Nc3cncnc3)cccc21 [Roche-Dataset for PDE10A, Compound 932] was tested. Which pIC50 did it give?
A: Its pIC50 is 6.91.

Q: CCOC(=O)c1cnn(C)c1C(=O)Nc1ccn2nc(-c3cccc(F)c3)nc2c1 [Roche-Dataset for PDE10A, Compound 175] was tested. Which pIC50 did it give?
A: The pIC50 was 7.34.

Q: Cn1ncc(C(=O)N2CCC2)c1C(=O)Nc1cc(-c2ccccn2)n[nH]1 [Roche-Dataset for PDE10A, Compound 664] was tested. Which pIC50 did it give?
A: The pIC50 was 8.08.

Q: With Cn1ncc(C(=O)N2CC(F)C2)c1C(=O)Nc1ccn2nc(N3CCOCC3)nc2c1 [Roche-Dataset for PDE10A, Compound 372] as the compound, how does the pIC50 read?
A: Its pIC50 is 8.30.

Q: With c1cc(COc2nc(N3CCOCC3)c3ccccc3n2)nc(N2CCCC2)c1 [4-(2-((6-(pyrrolidin-1-yl)pyridin-2-yl)methoxy)quinazolin-4-yl)morpholine] as the compound, how does the pIC50 read?
A: Its pIC50 is 7.24.

Q: How did the pIC50 turn out when Cc1c(Cl)cc(Cl)c2nc(CCc3nc4ncccn4n3)nn12 [Roche-Dataset for PDE10A, Compound 791] was run?
A: The pIC50 was 6.04.

Q: With Cn1nc(NC(=O)c2nc(C3CC3)ccc2Nc2cncnc2)cc1-c1ccccn1 [US8470820, 63] as the compound, how does the pIC50 read?
A: The pIC50 was 6.90.

Q: Cn1ncc(C(=O)N2CC(F)C2)c1C(=O)Nc1ccn2nc(-c3cccnc3)nc2c1 [Roche-Dataset for PDE10A, Compound 337] was tested. Which pIC50 did it give?
A: The pIC50 was 8.94.

Q: With O=C(Nc1cccc(N2CCCC2)c1)c1nc(C2CC2)cnc1Nc1cncnc1 [Roche-Dataset for PDE10A, Compound 793] as the compound, how does the pIC50 read?
A: The pIC50 was 6.88.

Q: How did the pIC50 turn out when CCCn1nc(-c2ccccn2)cc1NC(=O)c1nc(C2CC2)ccc1Nc1cncnc1 [US8470820, 23] was run?
A: The pIC50 was 8.77.

Q: CCNC(=O)c1c(NC(=O)c2c(C(=O)N3CCC3)cnn2C)cnn1C [Roche-Dataset for PDE10A, Compound 1120] was tested. Which pIC50 did it give?
A: Its pIC50 is 5.50.

Q: How did the pIC50 turn out when CN(C(=O)c1cnn(C)c1C(=O)N[C@@H]1CCn2c(nc(-c3ccccc3)c2Cl)C1)C1CC1 [Roche-Dataset for PDE10A, Compound 110] was run?
A: The pIC50 was 7.28.

Q: With Nc1ccc(C2CC2)nc1C(=O)Nc1cc2nc(-c3ccccc3)[nH]c2cc1C(=O)NC1COC1 [Roche-Dataset for PDE10A, Compound 243] as the compound, how does the pIC50 read?
A: Its pIC50 is 7.96.

Q: CNC(=O)c1cc(CCC(=O)O)ccc1NC(=O)c1nc(C2CC2)cnc1Nc1cncnc1 [US8703768, 328] was tested. Which pIC50 did it give?
A: Its pIC50 is 9.41.

Q: How did the pIC50 turn out when COc1ccccc1-c1nc2cc(NC(=O)c3c(C(=O)O)cnn3C)ccn2n1 [Roche-Dataset for PDE10A, Compound 356] was run?
A: The pIC50 was 8.01.

Q: With O=C(Nc1cc(-c2ccccn2)nn1CCO)c1nc(C2CC2)ccc1Nc1cncnc1 [US8470820, 10] as the compound, how does the pIC50 read?
A: Its pIC50 is 8.65.

Q: With Cn1nc(-c2ccc3ccccc3n2)cc1NC(=O)c1c(C(=O)N2CCC2)cnn1C [Roche-Dataset for PDE10A, Compound 468] as the compound, how does the pIC50 read?
A: The pIC50 was 9.04.

Q: With Cc1c(Cl)cc(Cl)c2nc(CCc3cn4ccccc4n3)nn12 [Roche-Dataset for PDE10A, Compound 663] as the compound, how does the pIC50 read?
A: Its pIC50 is 8.03.

Q: With Cc1ncc(O)c2nc(CCc3nc(N4CCCC4)nn3C)nn12 [Roche-Dataset for PDE10A, Compound 705] as the compound, how does the pIC50 read?
A: Its pIC50 is 6.85.

Q: How did the pIC50 turn out when O=C(Nc1ccn2nc(-c3ccccc3)nc2c1)c1cncc(Cl)c1 [Roche-Dataset for PDE10A, Compound 385] was run?
A: Its pIC50 is 7.15.

Q: With Cc1ncc(C2CC2)c2nc(CCc3nc(N4CCCC4)nn3C)nn12 [Roche-Dataset for PDE10A, Compound 605] as the compound, how does the pIC50 read?
A: Its pIC50 is 8.48.

Q: How did the pIC50 turn out when Cn1ncc(Br)c1C(=O)Nc1ccn2nc(-c3ccccc3)nc2c1 [Roche-Dataset for PDE10A, Compound 371] was run?
A: Its pIC50 is 7.46.

Q: O=C(Nc1ccn(Cc2ccccc2)n1)c1nc(C2CC2)ccc1Nc1cncnc1 [Roche-Dataset for PDE10A, Compound 446] was tested. Which pIC50 did it give?
A: Its pIC50 is 8.47.

Q: How did the pIC50 turn out when Cc1c(Cl)ccc2nc(/C=C/c3nc(N4CCCC4)n(C)n3)nn12 [Roche-Dataset for PDE10A, Compound 393] was run?
A: The pIC50 was 8.34.

Q: How did the pIC50 turn out when CN(c1nc2cc(NC(=O)c3c(C(=O)O)cnn3C)ccn2n1)C1CC1 [Roche-Dataset for PDE10A, Compound 649] was run?
A: The pIC50 was 7.38.

Q: Cc1cc(NC(=O)c2c(C(=O)N3CCC3)cnn2C)nn1C1CCCC1 [Roche-Dataset for PDE10A, Compound 1063] was tested. Which pIC50 did it give?
A: Its pIC50 is 6.36.

Q: How did the pIC50 turn out when CC(C)Oc1cc(C(=O)Nc2ccn3nc(-c4ccccc4)nc3c2)cc(Cl)n1 [Roche-Dataset for PDE10A, Compound 116] was run?
A: The pIC50 was 7.19.

Q: With CCc1nc(C)c(C(=O)Nc2cc3nc(-c4ccccc4)[nH]c3cc2C(=O)NCC2(C)COC2)o1 [Roche-Dataset for PDE10A, Compound 178] as the compound, how does the pIC50 read?
A: The pIC50 was 8.45.

Q: With CCn1nc(CCc2nc3c(C)ncc(C)n3n2)nc1N1CCCC1 [Roche-Dataset for PDE10A, Compound 533] as the compound, how does the pIC50 read?
A: Its pIC50 is 7.54.

Q: Cc1c(Cl)cc(Cl)c2nc(CCc3ccn(C)n3)nn12 [Roche-Dataset for PDE10A, Compound 980] was tested. Which pIC50 did it give?
A: The pIC50 was 6.51.

Q: With Cn1cc(-c2cccc(CCc3nc(-c4ccccc4)cn3C)n2)cn1 [Roche-Dataset for PDE10A, Compound 296] as the compound, how does the pIC50 read?
A: Its pIC50 is 5.19.

Q: With O=C(NCCO)c1ncccc1NC(=O)c1nc(C2CC2)cnc1Nc1cncnc1 [US8703768, 271] as the compound, how does the pIC50 read?
A: The pIC50 was 9.44.

Q: How did the pIC50 turn out when Cc1ccc(C)c(C(=O)Nc2cc(-c3ccccn3)nn2C)n1 [Roche-Dataset for PDE10A, Compound 726] was run?
A: Its pIC50 is 5.48.

Q: O=C(Nc1cccc(N2CCCC2=O)c1)c1nc(C2CC2)cnc1Nc1cncnc1 [Roche-Dataset for PDE10A, Compound 878] was tested. Which pIC50 did it give?
A: Its pIC50 is 7.82.

Q: With O=C(c1nc(C2CC2)cnc1Nc1cncnc1)N1CCN(c2ccccc2F)CC1 [Roche-Dataset for PDE10A, Compound 975] as the compound, how does the pIC50 read?
A: Its pIC50 is 5.21.

Q: O=C(NCC(F)(F)F)c1nc(C2CC2)cnc1Nc1cncnc1 [Roche-Dataset for PDE10A, Compound 1124] was tested. Which pIC50 did it give?
A: The pIC50 was 5.91.

Q: Cn1ncc(C(=O)N2CCC2)c1C(=O)Nc1ccn(C2CCC2)n1 [Roche-Dataset for PDE10A, Compound 1093] was tested. Which pIC50 did it give?
A: The pIC50 was 6.30.

Q: COCCN(C)C(=O)c1cnn(C)c1C(=O)Nc1ccn2cc(-c3cccc(OCCCF)c3)nc2n1 [Roche-Dataset for PDE10A, Compound 3] was tested. Which pIC50 did it give?
A: The pIC50 was 7.82.

Q: CCN(C)c1nc2cc(NC(=O)c3c(C(=O)O)cnn3C)ccn2n1 [Roche-Dataset for PDE10A, Compound 717] was tested. Which pIC50 did it give?
A: The pIC50 was 6.55.

Q: How did the pIC50 turn out when CN(C)c1nc2cc(NC(=O)c3c(C(=O)N4CCCC4)cnn3C)ccn2n1 [Roche-Dataset for PDE10A, Compound 489] was run?
A: The pIC50 was 8.28.

Q: O=C(Nc1ccc2cccnc2c1)c1nc(C2CC2)ccc1Nc1cncnc1 [Roche-Dataset for PDE10A, Compound 929] was tested. Which pIC50 did it give?
A: The pIC50 was 8.24.

Q: Cn1ncc(C(=O)NCCOCCO)c1C(=O)Nc1ccn2nc(-c3ccccc3)nc2c1 [Roche-Dataset for PDE10A, Compound 84] was tested. Which pIC50 did it give?
A: The pIC50 was 7.85.

Q: With CCc1cnc(C)n2nc(CCc3nc(N4CCCC4)nn3C)nc12 [Roche-Dataset for PDE10A, Compound 584] as the compound, how does the pIC50 read?
A: The pIC50 was 8.54.

Q: With CNC(=O)[C@@H]1CCC[C@H]1NC(=O)c1nc(C2CC2)cnc1Nc1cncnc1 [Roche-Dataset for PDE10A, Compound 971] as the compound, how does the pIC50 read?
A: The pIC50 was 5.94.

Q: Cn1cc(-c2ccccc2)nc1CCc1ccccn1 [Roche-Dataset for PDE10A, Compound 467] was tested. Which pIC50 did it give?
A: The pIC50 was 5.00.

Q: With Cn1cc(-c2ccccc2)nc1COc1ncc(Cl)nc1C(=O)NCc1ccccc1 [Roche-Dataset for PDE10A, Compound 297] as the compound, how does the pIC50 read?
A: Its pIC50 is 6.87.

Q: Cc1cc(C)n2nc(CCc3nc4c(Cl)cc(Cl)c(C)n4n3)nc2n1 [Roche-Dataset for PDE10A, Compound 1073] was tested. Which pIC50 did it give?
A: Its pIC50 is 6.56.

Q: How did the pIC50 turn out when O=C(Nc1ccc2cc(-c3ccccc3)nn2c1)c1onc2ccc(Br)cc12 [Roche-Dataset for PDE10A, Compound 523] was run?
A: The pIC50 was 8.00.
